The results in this text go back to ChEMBL document CHEMBL1137410, “Using fragment cocktail crystallography to assist inhibitor design of Trypanosoma brucei nucleoside 2-deoxyribosyltransferase” (2006).

This experiment concerns Trypanosoma brucei brucei. As to the kind of experiment: Inhibition of Trypanosoma brucei brucei growth. The experiment is classed as functional. Conditions: read-out: ED50 (the source's name).
As for `Cn1c(=O)ccc2ccccc21`, the EC50 was determined as 413 µM.

For the compound `Nc1cccc2cnccc12`, the EC50 came to 252 µM.

Take `CCc1ccccc1CO`: the EC50 is 1340 µM.
